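Cells were grown in 96-well plates and exposed to each compound for 48 hours at five concentrations; endpoints were interpolated linearly between bracketing concentrations, or set to the highest concentration if not reached. GI50 = concentration required for 50% inhibition of growth.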 Activity calls are given as the source filed them. Rule as the data show it: active = GI50 up to about 1.1 µM and inactive = higher.
Experiments:
Assay in all cases: inhibition of tumour cell growth, NCI panel, 48 h
EKVX = tested on: EKVX
SNB-75 = tested on: SNB-75
MOLT-4 = tested on: MOLT-4
K562 = tested on: K562
OVCAR-3 = tested on: OVCAR-3
COLO 205 = tested on: COLO 205
HL-60 = tested on: HL-60
OVCAR-5 = tested on: OVCAR-5
SF-295 = tested on: SF-295
SNB-19 = tested on: SNB-19
SF-268 = tested on: SF-268
M14 = tested on: M14
A549 = tested on: A549
HCT-116 = tested on: HCT-116
CAKI-1 = tested on: CAKI-1
LOX IMVI = tested on: LOX IMVI
HOP-92 = tested on: HOP-92
Hs-578T = tested on: Hs-578T
PC-3 = tested on: PC-3
MCF7 = tested on: MCF7

| Compound | GI50 (EKVX) | GI50 (SNB-75) | GI50 (MOLT-4) | GI50 (K562) | GI50 (OVCAR-3) | GI50 (COLO 205) | GI50 (HL-60) | GI50 (OVCAR-5) | GI50 (SF-295) | GI50 (SNB-19) | GI50 (SF-268) | GI50 (M14) | GI50 (A549) | GI50 (HCT-116) | GI50 (CAKI-1) | GI50 (LOX IMVI) | GI50 (HOP-92) | GI50 (Hs-578T) | GI50 (PC-3) | GI50 (MCF7) |
| --- | --- | --- | --- | --- | --- | --- | --- | --- | --- | --- | --- | --- | --- | --- | --- | --- | --- | --- | --- | --- |
| CSc1nnc(C(C#N)C#N)nn1 | > 100 µM (inactive) | > 100 µM (inactive) | > 100 µM (inactive) | > 100 µM (inactive) | > 100 µM (inactive) | > 100 µM (inactive) | > 100 µM (inactive) | > 100 µM (inactive) | > 100 µM (inactive) | > 100 µM (inactive) | > 100 µM (inactive) | > 100 µM (inactive) | > 100 µM (inactive) | > 100 µM (inactive) | > 100 µM (inactive) | > 100 µM (inactive) | > 100 µM (inactive) |  |  |  |
| Cc1cc(=O)n(-c2ccccc2C)c(C)n1 | > 100 µM (inactive) | > 100 µM (inactive) | > 100 µM (inactive) | > 100 µM (inactive) | > 100 µM (inactive) | > 100 µM (inactive) | > 100 µM (inactive) | > 100 µM (inactive) | > 100 µM (inactive) | > 100 µM (inactive) | > 100 µM (inactive) | > 100 µM (inactive) | > 100 µM (inactive) | > 100 µM (inactive) | > 100 µM (inactive) | > 100 µM (inactive) | > 100 µM (inactive) |  |  |  |
| COc1ccc(N2C(=O)C3CC(c4ccc(C)cc4)c4c([nH]c5ccccc45)C3C2=O)cc1 (configuration not stated) | > 63.5 µM (inactive) | 18.4 µM (inactive) | 21 µM (inactive) | > 63 µM (inactive) | 5.65 µM (inactive) | 20.7 µM (inactive) | 14.5 µM (inactive) | > 72.3 µM (inactive) | > 48.8 µM (inactive) | 12.4 µM (inactive) | 19.5 µM (inactive) | 33.8 µM (inactive) | 12.2 µM (inactive) | 4.43 µM (inactive) | > 96.2 µM (inactive) | 6.92 µM (inactive) | 24 µM (inactive) |  |  |  |
| Cc1ccc(C2(c3ccc(C)c(O)c3C)CCN(C)CC2)c(C)c1O | 44.4 µM (inactive) | > 100 µM (inactive) | > 100 µM (inactive) | 84.7 µM (inactive) | 54 µM (inactive) |  |  | > 100 µM (inactive) | 33.3 µM (inactive) | 62.4 µM (inactive) | > 100 µM (inactive) | 45.8 µM (inactive) | > 100 µM (inactive) | 38.5 µM (inactive) | > 100 µM (inactive) | 34.8 µM (inactive) | > 100 µM (inactive) | > 100 µM (inactive) | 35 µM (inactive) |  |
| COc1cc(CNc2nc3cc(C(F)(F)F)ccc3nc2C)cc(OC)c1OC | 17 µM (inactive) | 19.4 µM (inactive) | 10.9 µM (inactive) | 23 µM (inactive) | 25.2 µM (inactive) | 12.8 µM (inactive) | 16.5 µM (inactive) |  | 19.1 µM (inactive) | 35.1 µM (inactive) | 25.6 µM (inactive) | 12.4 µM (inactive) | 28.4 µM (inactive) | 19.3 µM (inactive) | 24.7 µM (inactive) | 13.9 µM (inactive) |  | 13.5 µM (inactive) |  | > 10 µM (inactive) |
| CCC(C(=O)C(=O)OC)P1(=O)OC(C)(C)CN1C(C)(C)C (configuration not stated) | > 100 µM (inactive) | > 100 µM (inactive) | > 100 µM (inactive) | > 100 µM (inactive) | > 100 µM (inactive) | > 100 µM (inactive) |  | > 100 µM (inactive) | > 100 µM (inactive) | > 100 µM (inactive) | > 100 µM (inactive) | > 100 µM (inactive) | > 100 µM (inactive) | > 100 µM (inactive) | > 100 µM (inactive) | > 100 µM (inactive) |  |  | > 100 µM (inactive) | 26.9 µM (inactive) |
| CC1=C2C(=O)O[C@@H](c3ccoc3)[C@]2(C)CCC1=O [FRAXINELLONONE] | > 100 µM (inactive) | > 100 µM (inactive) | > 100 µM (inactive) | > 100 µM (inactive) | > 100 µM (inactive) | > 100 µM (inactive) |  | > 100 µM (inactive) | > 100 µM (inactive) | > 100 µM (inactive) |  | > 100 µM (inactive) | > 100 µM (inactive) | > 100 µM (inactive) | > 100 µM (inactive) | > 100 µM (inactive) | > 100 µM (inactive) |  | > 100 µM (inactive) | > 100 µM (inactive) |
| COc1cc2c(c(OC)c1OC)-c1ccc(SC)c(=O)cc1[C@@H](NCc1ccc([N+](=O)[O-])cc1)CC2 | 0.0074 µM (active) | 0.00354 µM (active) | 0.00478 µM (active) | 0.00318 µM (active) | 0.003 µM (active) | 0.00396 µM (active) | 0.00202 µM (active) | 0.0074 µM (active) | 0.00364 µM (active) | 0.0308 µM (active) | 0.00676 µM (active) | 0.00404 µM (active) | 0.00748 µM (active) | 0.00369 µM (active) | 0.01 µM (active) | 0.00506 µM (active) | 0.0472 µM (active) |  |  |  |
| CCn1ncc2c(=O)n3ncn(-c4ccc(Br)cc4)c3nc21 | > 100 µM (inactive) | > 100 µM (inactive) | > 100 µM (inactive) | > 100 µM (inactive) | > 100 µM (inactive) | > 100 µM (inactive) | > 100 µM (inactive) | > 100 µM (inactive) | > 100 µM (inactive) | > 100 µM (inactive) | > 100 µM (inactive) | > 100 µM (inactive) | > 100 µM (inactive) | > 100 µM (inactive) |  |  |  | > 100 µM (inactive) | > 100 µM (inactive) | > 100 µM (inactive) |
| NCC(NC(=O)OCc1ccccc1)C(=O)O (configuration not stated) | > 50 µM (inactive) | > 50 µM (inactive) | > 50 µM (inactive) | > 50 µM (inactive) | > 50 µM (inactive) | > 50 µM (inactive) | > 50 µM (inactive) | > 50 µM (inactive) | > 50 µM (inactive) | > 50 µM (inactive) | > 50 µM (inactive) | > 50 µM (inactive) | > 50 µM (inactive) | > 50 µM (inactive) | > 50 µM (inactive) | > 50 µM (inactive) | > 50 µM (inactive) |  |  |  |
| N=C1OC(c2ccc3c(c2)OCO3)C(NNS(=O)(=O)c2ccccc2)=C1O (configuration not stated) | > 100 µM (inactive) | > 100 µM (inactive) | > 100 µM (inactive) | > 100 µM (inactive) | > 100 µM (inactive) | > 100 µM (inactive) | > 100 µM (inactive) | > 100 µM (inactive) | > 100 µM (inactive) | > 100 µM (inactive) | > 100 µM (inactive) | 46.6 µM (inactive) | > 100 µM (inactive) | > 100 µM (inactive) | > 100 µM (inactive) | > 100 µM (inactive) | > 100 µM (inactive) |  |  |  |
| Cc1nc(O)nc(N/N=C/c2c3ccccc3c(Cl)c3ccccc23)c1C(=O)Nc1ccc(Cl)cc1 |  | > 100 µM (inactive) | 31.3 µM (inactive) | 68.5 µM (inactive) | 58.3 µM (inactive) |  | 19 µM (inactive) | > 100 µM (inactive) |  | 92.5 µM (inactive) | > 100 µM (inactive) | 79.3 µM (inactive) | 63.4 µM (inactive) | 65.9 µM (inactive) | 99.5 µM (inactive) | 38.9 µM (inactive) |  |  | 10.8 µM (inactive) | > 100 µM (inactive) |
| CN1NC2(CCCCC2)ON=C1c1ccccc1 | > 100 µM (inactive) | > 100 µM (inactive) | > 100 µM (inactive) | > 100 µM (inactive) | > 100 µM (inactive) | > 100 µM (inactive) | > 100 µM (inactive) | > 100 µM (inactive) | > 100 µM (inactive) | > 100 µM (inactive) | > 100 µM (inactive) | > 100 µM (inactive) | > 100 µM (inactive) | > 100 µM (inactive) | > 100 µM (inactive) | > 100 µM (inactive) | > 100 µM (inactive) |  |  |  |
| C=CCN(c1cc(OCc2ccccc2)c2c(c1)c(C)cn2S(=O)(=O)c1ccccc1)S(C)(=O)=O | > 100 µM (inactive) | > 100 µM (inactive) | > 100 µM (inactive) | > 100 µM (inactive) | > 100 µM (inactive) | > 100 µM (inactive) | > 100 µM (inactive) | > 100 µM (inactive) | > 100 µM (inactive) | > 100 µM (inactive) | > 100 µM (inactive) | > 100 µM (inactive) | > 100 µM (inactive) | > 100 µM (inactive) | > 100 µM (inactive) | > 100 µM (inactive) | > 100 µM (inactive) | > 100 µM (inactive) | > 100 µM (inactive) |  |
| CCCCN(CCCC)C(=O)C(=O)C(C)C(=O)CC (configuration not stated) |  | > 100 µM (inactive) | > 100 µM (inactive) | > 100 µM (inactive) | > 100 µM (inactive) | > 100 µM (inactive) | > 100 µM (inactive) | > 100 µM (inactive) | > 100 µM (inactive) | > 100 µM (inactive) | > 100 µM (inactive) | > 100 µM (inactive) | > 100 µM (inactive) |  | > 100 µM (inactive) | > 100 µM (inactive) | > 100 µM (inactive) |  |  |  |
| CC(=O)OCC1OC(n2c(C)c(C(C)=O)c(-c3cccc4ccccc34)c(C#N)c2=S)C(OC(C)=O)C(OC(C)=O)C1OC(C)=O (configuration not stated) | > 100 µM (inactive) | 25.9 µM (inactive) | > 100 µM (inactive) | > 100 µM (inactive) | > 100 µM (inactive) | > 100 µM (inactive) | > 100 µM (inactive) | > 100 µM (inactive) | > 100 µM (inactive) | > 100 µM (inactive) | > 100 µM (inactive) | > 100 µM (inactive) | > 100 µM (inactive) | > 100 µM (inactive) | > 100 µM (inactive) | > 100 µM (inactive) | 17.5 µM (inactive) |  | > 100 µM (inactive) | > 100 µM (inactive) |

Source: ChEMBL document CHEMBL1201862, “PubChem BioAssay data set” (2004)
